This assay concerns the target 5-HTl receptor. Description: antagonism of the effect of serotonin in an in vitro dog basilar artery preparation. The assay is classed as biochemical. From the text:
Also, selective 5-HTl receptor antagonist activity of the compounds of formula (I) may be shown by the ability to antagonize the effect of serotonin in an in vitro dog basilar artery preparation, Peroutka et al, Brain Research 259:327-330 (1983).

Each structure is given as a SMILES string.

One may read the Kb as the equilibrium dissociation constant of an antagonist, usually derived from a functional assay.

Take `COc1ccc2[nH]cc3c2c1CC(N)C3` (stereo not shown) [example 1, 6-methoxy-l,3,4,5-tetrahydrobenz[cd]indole-4-amine hemioxalate]: the Kb is 463 nM.

For the origin of these results see patent EP0162695A1, “6-Oxygenated-1,3,,4,5-Tetrahydrobenz(cd)indol-4-amines” (SMITHKLINE BEECHAM CORPORATION, priority 1984, dated 1985).
